Reference: patent US20080003305A1, “PROCESS AND COMPOSITIONS FOR THE DISINFECTION OF WATERS” (BROMINE COMPOUNDS LIMITED, priority 1991, published 2008)

Experiments:
total anaerobic MOs = assay: Kinetics of kill in water from a citrus juice evaporator: total anaerobic; type: cell-based; conditions: 30 ppm as Cl2
Experimental: (§1) Kinetics of Kill of Various Mixtures of Ammonium Salts Mixed with NaOCl in Water from a Citrus Juice Evaporator
(§2) Demand: Higher than 30 ppm out of 30 ppm of Cl2 during 10 minutes.
(§3) Stock concentration of NH4X+NaOCl: 0.1% as Cl2

total aerobic MOs = assay: Kinetics of kill in water from a citrus juice evaporator: total aerobic; type: cell-based; conditions: 30 ppm as Cl2
Experimental: as §1, §2, §3

Fecal coli = assay: Efficacy of oxidizing biocides in domestic waste: fecal coli; type: cell-based; conditions: 20 ppm as Cl2; contact time 10 minutes
Experimental: (§4) Efficacy of Oxidizing Biocides in Domestic Waste
(§5) Non-treated domestic waste roughly filtered; contact time: 10 minutes.
(§6) Stock concentration: 0.5% as Cl2.

[1] = Residue as Cl2 in domestic waste; type: physicochemical; conditions: 20 ppm as Cl2, contact time 10 minutes
Experimental: as §4, §5, §6

[2] = system: MOs in starch sizing mixture; assay: Efficacy of oxidizing and non-oxidizing biocides in a starch sizing mixture (paper industry); type: cell-based; conditions: 30 ppm active ingredient, 60° C.
Experimental: Efficacy of Oxidizing and Non-Oxidizing Biocides is a Starch Sizing Mixture (Paper Industry)
Efficacy was measured at 60° C.
NH4Br+NaOCl: stock concentration 0.1%.
Dosage: 30 ppm active ingredient.
Incubation temperature 60° C.

[3] = system: total aerobic viable counts; assay: Efficacy of oxidizing biocides in water taken from a paper mill (thick stock of pulp slurry); type: cell-based; conditions: 15 mg/l as Cl2
Experimental: Efficacy of Oxidizing Biocides in Water Taken from a Paper Mill (Thick Stock of Pulp Slurry)
Microorganisms were incubated at 37° C. (total aerobic viable counts).
Concentration of stock solution: 0.1% as Cl2.

total count [4] = assay: Dependence of efficacy of NH4Br+NaOCl on the concentration of stock solution, industrial waste water; type: cell-based; conditions: no pre-mixed stock, 4 ppm as Cl2
Experimental: Dependence of Efficacy of Mixtures of NH4Br+NaOCl on the Concentrations of Stock Solution
Work was carried out in industrial waste water.
Stock concentrates were prepared in buffer at pH 7.00.
Biocidal dose: 4 ppm as Cl2.

aerob. MOs = assay: Efficacy in domestic waste containing a high concentration of amines: aerobic MOs; type: cell-based; conditions: 60 ppm; contact time 10 minutes; N as NH3 50mg/l; pH 6.10
Experimental: (§7) Efficacy of a Series of Biocides in Domestic Waste Containing a High Concentration of Amines
(§8) Incubation temperature: 27° C.
(§9) Stock concentration: 0.2%

total count [5] = assay: Pre-mixing versus in situ addition of ammonium salts and NaOCl, water from a corn-processing plant; type: cell-based; conditions: 12 ppm, stock formed in water
Experimental: Pre-Mixing Versus in Situ Addition of Ammonium Salts and NaOCl
Water from a corn-processing plant; high demand for Cl2,
NH4Cl+NaOCl: stock concentration: 1%
NH4Br+NaOCl: stock concentration: 0.5%
Stock solutions were formed at pH 14.0; 7.0, 4.0 and in water.
For in situ addition: both NH4X and NaOCl were dissolved at the appropriate pH.

[6] = Residue as Cl2 in water from a citrus juice evaporator; type: physicochemical; conditions: 30 ppm as Cl2
Experimental: as §1, §2, §3

anaer. MOs = assay: Efficacy in domestic waste containing a high concentration of amines: anaerobic MOs; type: cell-based; conditions: 60 ppm; contact time 10 minutes; N as NH3 50mg/l; pH 6.10
Experimental: as §7, §8, §9

total count [7] = assay: Efficacy of oxidizing biocides in domestic waste: total count; type: cell-based; conditions: 20 ppm as Cl2; contact time 10 minutes
Experimental: as §4, §5, §6

[8] = Residue as Cl2 in domestic waste containing a high concentration of amines; type: physicochemical; conditions: 60 ppm
Experimental: as §7, §8, §9

bacillus mycoides = assay: Efficacy of ammonium bromide at various pHs; type: cell-based; conditions: 2 ppm as Cl2
Experimental: Efficacy of Ammonium Bromide at Various pHs
Examined MO: bacillus mycoides
NH4Br+NaOCl: molar ratio 1:1; stock concentration: 0.5%;
NH4Br+NaOCl was either pre-mixed or added in situ to the buffer.
Demand: 1.8 ppm out of 2 ppm of Cl2 within 60 minutes.

[9] = system: fouling of size press filters; assay: Field experiment, starch sizing mixture (paper mill); conditions: NaOCl (10% as Cl2) fed every 8 hours, 30 liters per portion
Experimental: • Paper mill, starch sizing • Contained volume: 20 m^3 • Flow rate: 8.33 m^3/h. (6% starch in H2O), • pH about 8.0 • Temperature: 50° C.-70° C.
Sizing mixture is recirculated in a size press through a filter (80 microns). Circulation rate: 6 m^3/h. The sizing mixture had been previously treated with NaOCl (10% as Cl2), which was fed every 8 hours (30 liters per portion).
Use of NaOCl was replaced by the use of a mixture of NH4Br+NaOCl (stock concentration 0.5% as Cl2).

Pseudomonas sp. = assay: Efficacy in buffer at pH-7.5 against Pseudomonas sp.; type: cell-based; conditions: buffer pH 7.5, 1 ppm as Cl2
Experimental: Efficacy in Buffer at pH-7.5 against Pseudomonas sp.
Chlorine demand: 0.1 ppm out of 1 ppm within 20 minutes
NH4Br+NaOCl: stock concentration: 1000 ppm as Cl2
Preparation of stock solution: NH4Br was dissolved in de-ionized water (2761 ppm). NaOCl (2000 ppm as Cl2) was quickly added dropwise to the ammonium bromide solution while stirring the mixture. The stock solution was used immediately.

[Na+].[O-]Cl [NaOCl, sodium hypochlorite]
Surviving MOs after time (minutes); (total anaerobic): 10 (total anaerobic MOs; 10 minutes): 8 × 10^4 cfu/ml
Surviving MOs after time (minutes); (total anaerobic): 20 (total anaerobic MOs; 20 minutes): 3 × 10^6 cfu/ml
Surviving MOs after time (minutes); total aerobic: 10 (total aerobic MOs; 10 minutes): 2 × 10^5 cfu/ml
Surviving MOs after time (minutes); total aerobic: 20 (total aerobic MOs; 20 minutes): 2 × 10^7 cfu/ml
Surviving MOs after time (minutes); total aerobic: 60 (total aerobic MOs; 60 minutes): 1 × 10^7 cfu/ml
Fecal coli (Fecal coli): 5 × 10^5 cfu/ml
residue as Cl2 free ([1]; free): 0 (0) ppm
residue as Cl2 (total) ([1]; total): 0 (0) ppm
Surviving MOs after time (hours): 4 ([2]; 4 hours): 4 × 10^3 cfu/ml
Surviving MOs after time (hours): 28 ([2]; 28 hours): 2 × 10^6 cfu/ml
Surviving MOs after time (hours): 48 ([2]; 48 hours): 3 × 10^6 cfu/ml
Surviving MOs after time (hours): 72 ([2]; 72 hours): 3 × 10^6 cfu/ml
Viable counts after time (minutes): 30 ([3]; 30 minutes): 6 × 10^3 cfu/ml
Viable counts after time (minutes): 70 ([3]; 70 minutes): 2 × 10^3 cfu/ml
Viable counts after time: 25 hours ([3]; 25 hours): 1 × 10^5 cfu/ml
Survivors total count after time (minutes): 10 (total count [4]; 10 minutes): 9 × 10^5 cfu/ml
Survivors total count after time (minutes): 180 (total count [4]; 180 minutes): 7 × 10^5 cfu/ml
Surviving MOs after 10 minutes aerob. (aerob. MOs): 9 × 10^2 cfu/ml
Survivors (total count) H2O, 60 minutes (total count [5]; 60 minutes): 2 × 10^6 cfu/ml
Survivors (total count) H2O, 180 minutes (total count [5]; 180 minutes): 2 × 10^6 cfu/ml
residue as Cl2 free after time (minutes): 10 ([6]; free, 10 minutes): 0 (0)
residue as Cl2 free after time (minutes): 20 ([6]; free, 20 minutes): 0 (0)
residue as Cl2 free after time (minutes): 60 ([6]; free, 60 minutes): 0 (0)
residue as Cl2 (total) after time (minutes): 10 ([6]; total, 10 minutes): 0 (0)
residue as Cl2 (total) after time (minutes): 20 ([6]; total, 20 minutes): 0 (0)
residue as Cl2 (total) after time (minutes): 60 ([6]; total, 60 minutes): 0 (0)
Surviving MOs after 10 minutes anaer. (anaer. MOs): 3 × 10^3 cfu/ml
total count (total count [7]): 6 × 10^6 cfu/ml
Residue free as Cl2 after 10 minutes ([8]; free): 0.2
Residue (total) as Cl2 after 10 minutes ([8]; total): 1.5
Survivors pH-7.0 60 m (bacillus mycoides; pH 7.0, 60 m): 1 × 10^5 cfu/ml
Survivors pH-7.0 180 m (bacillus mycoides; pH 7.0, 180 m): 1 × 10^5 cfu/ml
Survivors pH-7.0 24 h (bacillus mycoides; pH 7.0, 24 h): 1 × 10^5 cfu/ml
Survivors pH-8.0 60 m (bacillus mycoides; pH 8.0, 60 m): 3 × 10^5 cfu/ml
Survivors pH-8.0 180 m (bacillus mycoides; pH 8.0, 180 m): 1 × 10^5 cfu/ml
Survivors pH-8.0 24 h (bacillus mycoides; pH 8.0, 24 h): 1 × 10^5 cfu/ml
Survivors pH-9.0 60 m (bacillus mycoides; pH 9.0, 60 m): 1 × 10^5 cfu/ml
Survivors pH-9.0 180 m (bacillus mycoides; pH 9.0, 180 m): 1 × 10^5 cfu/ml
Survivors pH-9.0 24 h (bacillus mycoides; pH 9.0, 24 h): 1 × 10^5 cfu/ml
frequency of filter washing [9]: filters had to be washed once every two hours
Survivors after time (minutes): 1 (Pseudomonas sp.; 1 minute): 4 × 10^6 cfu/ml
Survivors after time (minutes): 5 (Pseudomonas sp.; 5 minutes): 1 × 10^5 cfu/ml
Survivors after time (minutes): 10 (Pseudomonas sp.; 10 minutes): 4 × 10^2 cfu/ml
Survivors after time (minutes): 20 (Pseudomonas sp.; 20 minutes): 0 cfu/ml
